For data set [1], the system named is LoVo colon tumour cell line. Put plainly: MTT cell viability assay, LoVo. As to conditions: 72 h. In kind it is cell-based. The procedure: (§1) For cytotoxicity assays, 1×10^4 cells were seeded per well into a 96-well plate. After 24 h cells were treated with the indicated inhibitors for 72 h and a MTT colorimetric cell viability assay was performed following manufacturer's instructions (Sigma Aldrich, St Louis, Mo.). Absorbance was measured at 570 and 630 nm using a Multiskan Plus Reader (Nanoquant Infinite M200 Tecan Trading AG, Switzerland). Dose-response curves were designed with Graph Pad Prism Software and the half-maximal inhibitory concentration (IC50) values were calculated. Represented data are the mean±SEM of at least three independent experiments with six replicates per condition.

Data set [2] has as its system LoVo cells. Put plainly: Immunofluorescence of E-cadherin, LoVo. In kind it is cell-based. As to conditions: 48 h. As to the method:
(§2) For western blot analysis, cells were treated with the indicated inhibitors for 48 h and the whole cell extracts were obtained as described previously. Twenty micrograms of lysates were resolved on a 10% polyacrilamide SDS-PAGE followed by western blot analysis performed as previously described. For immunofluorescence assays cells were grown for 24 h on glass coverslips and treated with the indicated inhibitors for 48 h. Cells were fixed with 4% PFA for 15 min, permeabilized with 0.5% […] and incubated with E-cadherin antibody for 2 h. Coverslips were incubated with fluorescein-tagged secondary antibody (Dakopatts, Sweden) for […]. Finally coverslips were mounted with ProLong Gold antifade reagent (LifeTech, UK) and images were taken in epifluorescence microscope (Olympus) using 40× objective.

The next data set relates to HT29 cells. Put plainly: Migration assay, HT29. In kind it is cell-based. As to conditions: HT-29; treated 48 h. The procedure:
For invasion assays, cells were treated with Hakin-1 or DMSO as vehicle for 48 h using 1% FBS during the last 24 hours. 3×10^5 MDCK, MDCK-Hakai or LoVo cells were seeded in a cell invasion chamber (Cell invasion assaykit, Chemicon International) containing medium with 2% FBS. After 72 hours for MDCK and MDCK-Hakai Invasive and 16 h for LoVo cells, invasive cells invaded that reach the lower chamber containing 30% FBS were fixed and stained with crystal violet (Sigma Aldrich, St Louis, Mo.) following the manufacturer's specifications. For migration assays, HT29 cells were cultured with Hakin-1 or DMSO as vehicle for 48 h, using medium without serum the last 24 h. In the cell migration chamber were seeded 3×10^5 HT29 cells (Cell migration kit, Millipore, Bedford, Mass.) containing medium without serum. After 16 h, migrated cells in the lower chamber containing serum with 30% FBS were stained with crystal violet and counted following the manufacturer's specifications. For both invasion and migration assays cells were counted in five fields photographed with an Olympus microscope using a 20× objective, experiments were performed in triplicates for each condition and the assays were repeated at least three times. Results are expressed as mean±SD.

The test system of another data set is Hakai-MDCK cells. Put plainly: BrdU proliferation assay, Hakai-MDCK. As to conditions: 48 h. In kind it is cell-based. As to the method: (§3) For BrdU assays, 1×10^4 of indicated cells were plated per well into a 96-well plate. After 24 h, cells were treated with the indicated inhibitors for 48 h. Three independent experiments were plated with six replicates per each condition. Cells were treated with […] BrdU for 2 h. BrdU incorporation into newly synthesized DNA was measured using a cell proliferation colorimetric immunoassay kit according to the manufacturer's instructions (Roche, Switzerland). Results are expressed as mean±S.D. Results are represented as percentage of positive cells (mean±S.D) of three independent experiments.

The subject of data set [3] is LoVo cells. The experiment in a line: Western blotting of EMT markers, LoVo. In kind it is cell-based. As to conditions: 48 h. The procedure:
as §2

Data set [4] has as its system HT-29 colon tumour cell line. The experiment in a line: MTT cell viability assay, HT29. It is filed as cell-based. As to conditions: 72 h, analogues at 50-500 μM. As to the method: as §1
The test system of a further data set is breast cancer MCF7 cell. The experiment in a line: BrdU proliferation assay, MCF7. In kind it is cell-based, human. As to conditions: 48 h. As to the method:
as §3

Data set [5] has as its system LoVo cells. The experiment in a line: BrdU proliferation assay, LoVo. It is filed as cell-based. As to conditions: 48 h. The procedure: as §3
The test system of data set [6] is ubiquitination in 293T cells. The experiment in a line: Ubiquitination assay in 293T cells transfected with v-Src and HA-ubiquitin (Hakai not overexpressed). It is filed as cell-based. The procedure:
(§4) Six hours after transfection cells were treated with indicated concentrations of Hakin-1, Hakin-5 or the rest of the analogues tested for 36 h. Whole cell extracts were obtained in lysis buffer (20 mM Tris-HCl pH 7.5, 150 mM NaCl and 1% Triton X-100) containing 10 μg/ml leupeptin, 10 μg/ml aprotinin and 1 mM phenylmethanesulphonyl fluoride (PMSF), supplemented with 10 mM N-ethylmaleimide. Cells were harvested and subjected to western blotting using anti-HA antibody to detect ubiquitination.

Data set [7] addresses T1, E3 ubiquitin-ligase Hakai (Mus musculus, UniProt Q9JIY2).
T1 construct: expressed in transfected cells; host or cells: HEK293T (293) cells, co-transfected with v-Src and HA-ubiquitin, and in A3 also with myc-E-cadherin
T1 sequence (Q9JIY2 1-491): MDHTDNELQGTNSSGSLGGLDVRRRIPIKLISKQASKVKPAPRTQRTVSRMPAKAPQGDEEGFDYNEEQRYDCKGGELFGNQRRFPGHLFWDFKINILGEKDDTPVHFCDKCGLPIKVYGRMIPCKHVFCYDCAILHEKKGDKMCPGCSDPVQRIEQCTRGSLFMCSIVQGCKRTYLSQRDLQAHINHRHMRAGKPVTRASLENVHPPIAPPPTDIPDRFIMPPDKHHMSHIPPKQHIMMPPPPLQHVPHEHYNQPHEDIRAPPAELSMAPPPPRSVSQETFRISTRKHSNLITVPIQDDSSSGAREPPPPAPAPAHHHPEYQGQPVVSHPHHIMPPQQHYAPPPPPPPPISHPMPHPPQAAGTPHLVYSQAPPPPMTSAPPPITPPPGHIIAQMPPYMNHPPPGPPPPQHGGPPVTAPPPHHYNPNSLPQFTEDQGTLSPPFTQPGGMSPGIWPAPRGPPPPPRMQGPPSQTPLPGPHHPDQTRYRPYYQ
The experiment in a line: Hakai-dependent ubiquitination assay in 293T cells transfected with Flag-Hakai, v-Src and HA-ubiquitin. It is filed as cell-based. As to conditions: 293T cells transfected with Src, treated 36 h. The procedure: as §4, with “For ubiquitination assays, 750.000 HEK293T cells were seeded in 6-well cell culture plates and after 24 h were transfected with 0.25 μg Src, 0.75 μg Flag-Hakai, and 0.5 μg HA-ubiquitin with Lipofectamin 2000 (Invitrogen, UK). Six” for “Six”

Molecules are shown by their SMILES.

With `O=C(O)c1ccc(-n2nnnc2SCC(=O)c2ccc([N+](=O)[O-])cc2)cc1` [Hakin-1, 4-(5-{[2-(4-nitrophenyl)-2-oxoethyl]thiol}-1H-tetrazol-1-yl)benzoic acid], the “cytotoxicity effect (cell viability, MTT)” value in data set [1] and in [4] was “important inhibitory response” each time. In addition, the “E-cadherin levels at cell-cell contacts (immunofluorescence)” value with LoVo cells [2] is “significant increase E-cadherin levels at cell-cell contacts”. For the same compound, in the data set with HT29 cells, the cell migration result is reported as “important reduction of cell migration”. The “cell proliferation (BrdU)” value in the data set with Hakai-MDCK cells is given as “suppress proliferation”; with breast cancer MCF7 cell, “inhibits cell proliferation”; in the data set with LoVo cells [5] it was “reduced cell proliferation”. Besides, in the data set with LoVo cells [3], the “EMT markers (western blotting)” value is on record as “confirmed these results”. In data set [6], the “ubiquitination when Hakai was not overexpressed” value is “did not affect ubiquitination”. Besides, in data set [7], the Hakai protein levels entry was “no effect was seen”. For the same compound, in [7] (DMSO as control), the “ubiquitination mediated by Hakai (western blotting, anti-HA)” value was “strongly reduces the ubiquitination mediated by Hakai in a doses dependent-manner”.

Values taken from patent US20220016080A1, “COMPOUNDS THAT SELECTIVELY AND EFFECTIVELY INHIBIT HAKAI-MEDIATED UBIQUITINATION, AS ANTI-CANCER DRUGS” (FUNDACIÓN PROFESOR NOVOA SANTOS, priority 2018, published 2022).
